Measured values reported in patent US20240165114A1, “TREATMENT OF DIABETIC NEPHROPATHY WITH AN sGC STIMULATOR” (Cyclerion Therapeutics, Inc., priority 2019, published 2024).

Key:
Format in all cases: in vivo, human
[1] = test system: adult patients with type 2 diabetes mellitus with albuminuria; assay: Phase 2 study: serum LDL cholesterol; settings: for Serum LDL Cholesterol: Between PRL and PBO Group LS Mean Change from Baseline at week 12 / Serum LDL Cholesterol: Within Group LS Mean Change from Baseline at Week 12: ITT; for LDL Cholesterol: Placebo Adjusted LS Mean Change from Baseline at Week 12 / LDL Cholesterol: Within Group LS Mean Change from Baseline at Week 12: mITT Population
From the text: (§1) Other secondary objectives of this clinical study included the evaluation of the pharmacokinetic (PK) concentrations of oral IW-1973 and the exploration of the effect of oral IW-1973 on hemodynamics and metabolic effects when administered daily for approximately 12 weeks to adult patients with type 2 diabetes mellitus with albuminuria (i.e., DN patients) who were on a stable regimen of renin-angiotensin system inhibitors (RAAS inhibitors, i.e., ACEi's and ARBs).
(§2) Clinical laboratory assessments obtained during the performance of this clinical trial included: complete blood count, serum chemistry panel, urinalysis, coagulation panel, estimated glomerular filtration rate (eGFR; determined by the Chronic Kidney Disease Epidemiology Collaboration [CKD-EPI] creatinine equation), hemoglobin A1c (HbA1C), Homeostatic Model Assessment to estimate insulin resistance (HOMA-IR), platelet function assessment (using VerifyNow®, at a subset of sites), urine pregnancy, and screens for hepatitis, human immunodeficiency virus, and drugs of abuse.
(§3) This multicenter, randomized, double-blind, placebo-controlled, parallel-group study evaluated 2 dose levels of IW-1973 compared with placebo. The study population consisted of adult patients with type 2 diabetes mellitus, albuminuria, and impaired renal function. Patients had to have been taking antihyperglycemic medications for at least 12 weeks with their regimen being stable (ie, drug and dose) for at least 28 days before the Randomization Visit. Additionally, patients had to have been on a stable regimen of angiotensin-converting enzyme inhibitor (ACEi) or an angiotensin receptor blocker (ARB), for at least 28 days before the Randomization Visit. For more details, see Inclusion Criteria below. A total of 156 patients (approximately 50 patients per arm) were stratified by baseline estimated glomerular filtration rate (eGFR) into three groups: eGFR 30 to 45, >45 to 60, and >60 to 75 mL/min/1.73 m^2) and randomized approximately 1:1:1 to total daily 20 mg IW-1973, 40 mg IW-1973, or placebo.

[2] = test system: adult patients with type 2 diabetes mellitus with albuminuria; assay: Phase 2 study: fasting plasma glucose; settings: ITT
From the text: as §1, §2, §3

[3] = test system: adult patients with type 2 diabetes mellitus with albuminuria; assay: Phase 2 study: serum cholesterol; settings: for Serum Cholesterol: Between PRL and PBO Group LS Mean Change from Baseline at week 12 / Serum Cholesterol: Within Group LS Mean Change from Baseline at Week 12: ITT; for Cholesterol: Placebo-Adjusted LS Mean Change from Baseline at Week 12 / Cholesterol: Within Group LS Mean Change from Baseline at Week 12: mITT Population
From the text: as §1, §2, §3

Question: Which results are given for `OC(CNc1nc(-c2cc(-c3ccon3)n(Cc3ccccc3F)n2)ncc1F)(C(F)(F)F)C(F)(F)F` [Compound I, praliciguat]?
Answer: Serum LDL Cholesterol: Between PRL and PBO Group LS Mean Change from Baseline at week 12 ([1]; PRL 20 mg): -8.9 mg/dL; Serum LDL Cholesterol: Within Group LS Mean Change from Baseline at Week 12 ([1]; PRL 20 mg): -6.0 mg/dL; Serum LDL Cholesterol: Between PRL and PBO Group LS Mean Change from Baseline at week 12 ([1]; PRL 40 mg): -6.2 mg/dL; Serum LDL Cholesterol: Within Group LS Mean Change from Baseline at Week 12 ([1]; PRL 40 mg): -3.3 mg/dL; Serum LDL Cholesterol: Between PRL and PBO Group LS Mean Change from Baseline at week 12 ([1]; PRL Combined): -7.5 mg/dL; Serum LDL Cholesterol: Within Group LS Mean Change from Baseline at Week 12 ([1]; PRL Combined): -4.6 mg/dL; LDL Cholesterol: Placebo Adjusted LS Mean Change from Baseline at Week 12 ([1]; PRL 20 mg): -13.4 mg/dL; LDL Cholesterol: Within Group LS Mean Change from Baseline at Week 12 ([1]; PRL 20 mg): -8.8 mg/dL; LDL Cholesterol: Placebo Adjusted LS Mean Change from Baseline at Week 12 ([1]; PRL 40 mg): -9.5 mg/dL; LDL Cholesterol: Within Group LS Mean Change from Baseline at Week 12 ([1]; PRL 40 mg): -4.9 mg/dL; LDL Cholesterol: Placebo Adjusted LS Mean Change from Baseline at Week 12 ([1]; PRL Combined): -11.4 mg/dL; LDL Cholesterol: Within Group LS Mean Change from Baseline at Week 12 ([1]; PRL Combined): -6.9 mg/dL; Fasting Plasma Glucose: Between PRL and PBO Group LS Mean Change from Baseline at week 12 ([2]; PRL 20 mg): 2.3 mg/dL; Fasting Plasma Glucose: Within Group LS Mean Change from Baseline at Week 12 ([2]; PRL 20 mg): 6.09 mg/dL; Fasting Plasma Glucose: Between PRL and PBO Group LS Mean Change from Baseline at week 12 ([2]; PRL 40 mg): -18.2 mg/dL; Fasting Plasma Glucose: Within Group LS Mean Change from Baseline at Week 12 ([2]; PRL 40 mg): -14.4 mg/dL; Fasting Plasma Glucose: Between PRL and PBO Group LS Mean Change from Baseline at week 12 ([2]; PRL Combined): -7.9 mg/dL; Fasting Plasma Glucose: Within Group LS Mean Change from Baseline at Week 12 ([2]; PRL Combined): -4.1 mg/dL; Serum Cholesterol: Between PRL and PBO Group LS Mean Change from Baseline at week 12 ([3]; PRL 20 mg): -12.1 mg/dL; Serum Cholesterol: Within Group LS Mean Change from Baseline at Week 12 ([3]; PRL 20 mg): -7.8 mg/dL; Serum Cholesterol: Between PRL and PBO Group LS Mean Change from Baseline at week 12 ([3]; PRL 40 mg): -8.1 mg/dL; Serum Cholesterol: Within Group LS Mean Change from Baseline at Week 12 ([3]; PRL 40 mg): -3.7 mg/dL; Serum Cholesterol: Between PRL and PBO Group LS Mean Change from Baseline at week 12 ([3]; PRL Combined): -10.1 mg/dL; Serum Cholesterol: Within Group LS Mean Change from Baseline at Week 12 ([3]; PRL Combined): -5.8 mg/dL; Cholesterol: Placebo-Adjusted LS Mean Change from Baseline at Week 12 ([3]; PRL 20 mg): -13.1 mg/dL; Cholesterol: Within Group LS Mean Change from Baseline at Week 12 ([3]; PRL 20 mg): -10.6 mg/dL; Cholesterol: Placebo-Adjusted LS Mean Change from Baseline at Week 12 ([3]; PRL 40 mg): -7.5 mg/dL; Cholesterol: Within Group LS Mean Change from Baseline at Week 12 ([3]; PRL 40 mg): -4.8 mg/dL; Cholesterol: Placebo-Adjusted LS Mean Change from Baseline at Week 12 ([3]; PRL Combined): -10.2 mg/dL; Cholesterol: Within Group LS Mean Change from Baseline at Week 12 ([3]; PRL Combined): -7.7 mg/dL
